Measured values from patent publication US6624182B1, “Hydroxyphenylvinylthiazoles” (Ciba Specialty Chemicals Corporation, priority 1999, dated 2003).

What was measured:
Experiment in all cases: Determination of the minimum inhibitory concentration (MIC value) in microtitre plates
S. aureus = assay type: cell-based; conditions: optical density at 620 nm, 48 hours at 37° C., MIC = ≦20% growth; tested at 100; 10 and 1 ppm (approximate values); (2), (3), (4) at 120; 60; 30; 15; 7.5; 3.75 ppm
Source text: (§1) Determination of the Minimum Inhibitory Concentration (MIC Value) in Microtitre Plates Nutrient Medium Casein/soybean flour/peptone bouillon for the preparation of preliminary cultures of the test bacteria and yeast. Mycological slant agar for the preliminary culture of moulds Examples of Test Microbes: Bacteria: Staphylococcus hominis DMS 20328 Procedure: The test substances are pre-dissolved in dimethyl sulfoxide (DMSO) and tested in a series of dilutions of 1:2. Bacteria and yeast are cultured overnight in CASO bouillon; the mould is cultured on myco-logical slant agar and sponged off with 10 ml of 0.85% sodium chloride solution (+0.1% Triton X-100). All the test microbes are adjusted to a germ count of 1−5×10^6 KBE/ml using 0.85% sodium chloride solution. The test substances are pre-pipetted into microtitre plates in an amount of 8 μl per well. Pre-diluted microbe suspensions are diluted 1:100 in CASO bouillon (bacteria and yeast) or Sabouraud 2% glucose bouillon (mould) and added to the test substances in an amount of 192 μl per well. The test batches are incubated for 48 hours at 37° C. (bacteria and yeast) or for 5 days at 28° C. (mould). After incubation, the growth is determined by means of the clouding of the test batches (optical density) at 620 nm in a microplate reader. The concentration of substance at which (compared with the growth control) a marked inhibition of growth (≦20% growth) of the test microbes can be observed is given as the minimum inhibitory concentration (MIC value). One microtitre plate is used per test microbe and substance concentration. All substances are tested in duplicate.

E. coli = assay type: cell-based, Escherichia coli NCTC 8196; conditions: optical density at 620 nm, 48 hours at 37° C., MIC = ≦20% growth; tested at 100; 10 and 1 ppm (approximate values); (2), (3), (4) at 120; 60; 30; 15; 7.5; 3.75 ppm
Protocol: as §1, with “Escherichia coli NCTC 8196” for “Staphylococcus hominis DMS 20328”

P. aeruginosa = assay type: cell-based, Pseudomonas aeruginosa CIP A-22; conditions: optical density at 620 nm, 48 hours at 37° C., MIC = ≦20% growth; tested at 100; 10 and 1 ppm (approximate values); (2), (3), (4) at 120; 60; 30; 15; 7.5; 3.75 ppm
Protocol: as §1, with “Pseudomonas aeruginosa CIP A-22” for “Staphylococcus hominis DMS 20328”

C. albicans = assay type: cell-based, Candida albicans ATCC 10231; conditions: optical density at 620 nm, 48 hours at 37° C., MIC = ≦20% growth; tested at 100; 10 and 1 ppm (approximate values); (2), (3), (4) at 120; 60; 30; 15; 7.5; 3.75 ppm
Protocol: as §1, with “Yeast: Candida albicans ATCC 10231” for “Bacteria: Staphylococcus hominis DMS 20328”

A. niger = assay type: cell-based, Aspergillus niger ATCC 6275; conditions: optical density at 620 nm, 5 days at 28° C., MIC = ≦20% growth; tested at 100; 10 and 1 ppm (approximate values); (2), (3), (4) at 120; 60; 30; 15; 7.5; 3.75 ppm
Protocol: as §1, with “Mould: Aspergillus niger ATCC 6275” for “Bacteria: Staphylococcus hominis DMS 20328”

Oc1cccc(/C=C/c2nc(-c3ccc(F)cc3)cs2)c1 [Compound of formula (5)]
>100 ppm: MIC values in ppm S. aureus (S. aureus) | MIC values in ppm E. coli (E. coli) | MIC values in ppm P. aeruginosa (P. aeruginosa) | MIC values in ppm C. albicans (C. albicans) | MIC values in ppm A. niger (A. niger)

COc1ccc(/C=C/c2nc(-c3ccc(F)cc3)cs2)cc1O [Compound of formula (6)]
>100 ppm: MIC values in ppm S. aureus (S. aureus) | MIC values in ppm E. coli (E. coli) | MIC values in ppm P. aeruginosa (P. aeruginosa) | MIC values in ppm C. albicans (C. albicans) | MIC values in ppm A. niger (A. niger)

CCOc1cc(/C=C/c2nc(-c3ccc(F)cc3)cs2)ccc1O [Compound of formula (7)]
>100 ppm: MIC values in ppm S. aureus (S. aureus) | MIC values in ppm E. coli (E. coli) | MIC values in ppm P. aeruginosa (P. aeruginosa) | MIC values in ppm C. albicans (C. albicans) | MIC values in ppm A. niger (A. niger)

COc1cc(/C=C/c2nc(-c3ccc(F)cc3)cs2)ccc1O [Compound of formula (8)]
>100 ppm: MIC values in ppm S. aureus (S. aureus) | MIC values in ppm E. coli (E. coli) | MIC values in ppm P. aeruginosa (P. aeruginosa) | MIC values in ppm C. albicans (C. albicans) | MIC values in ppm A. niger (A. niger)

COc1ccc(/C=C/c2nc(-c3ccc(F)cc3)cs2)c(O)c1 [Compound of formula (9)]
>100 ppm: MIC values in ppm S. aureus (S. aureus) | MIC values in ppm E. coli (E. coli) | MIC values in ppm P. aeruginosa (P. aeruginosa) | MIC values in ppm C. albicans (C. albicans) | MIC values in ppm A. niger (A. niger)

Oc1ccccc1/C=C/c1nc(-c2ccc(F)cc2)cs1 [Compound of formula (10)]
>100 ppm: MIC values in ppm S. aureus (S. aureus) | MIC values in ppm E. coli (E. coli) | MIC values in ppm P. aeruginosa (P. aeruginosa) | MIC values in ppm C. albicans (C. albicans) | MIC values in ppm A. niger (A. niger)

COc1cc(/C=C/c2nc(-c3ccc(F)cc3)cs2)cc(O)c1OC [Compound of formula (11)]
>100 ppm: MIC values in ppm S. aureus (S. aureus) | MIC values in ppm E. coli (E. coli) | MIC values in ppm P. aeruginosa (P. aeruginosa) | MIC values in ppm C. albicans (C. albicans) | MIC values in ppm A. niger (A. niger)

Cc1cc(/C=C/c2nc(-c3ccc(F)cc3)cs2)cc(C)c1O [Compound of formula (12)]
>100 ppm: MIC values in ppm S. aureus (S. aureus) | MIC values in ppm E. coli (E. coli) | MIC values in ppm P. aeruginosa (P. aeruginosa) | MIC values in ppm C. albicans (C. albicans) | MIC values in ppm A. niger (A. niger)

Cc1cccc(/C=C/c2nc(-c3ccc(F)cc3)cs2)c1O [Compound of formula (13)]
>100 ppm: MIC values in ppm S. aureus (S. aureus) | MIC values in ppm E. coli (E. coli) | MIC values in ppm P. aeruginosa (P. aeruginosa) | MIC values in ppm C. albicans (C. albicans) | MIC values in ppm A. niger (A. niger)

Oc1cc(OCc2ccccc2)ccc1/C=C/c1nc(-c2ccc(F)cc2)cs1 [Compound of formula (14)]
>100 ppm: MIC values in ppm S. aureus (S. aureus) | MIC values in ppm E. coli (E. coli) | MIC values in ppm P. aeruginosa (P. aeruginosa) | MIC values in ppm C. albicans (C. albicans) | MIC values in ppm A. niger (A. niger)

COc1cc(O)ccc1/C=C/c1nc(-c2ccc(F)cc2)cs1 [Compound of formula (15)]
>100 ppm: MIC values in ppm S. aureus (S. aureus) | MIC values in ppm E. coli (E. coli) | MIC values in ppm P. aeruginosa (P. aeruginosa) | MIC values in ppm C. albicans (C. albicans) | MIC values in ppm A. niger (A. niger)

CC(C)(C)c1csc(/C=C/c2ccc(O)cc2)n1 [Compound of formula (16)]
>100 ppm: MIC values in ppm S. aureus (S. aureus) | MIC values in ppm E. coli (E. coli) | MIC values in ppm P. aeruginosa (P. aeruginosa) | MIC values in ppm C. albicans (C. albicans) | MIC values in ppm A. niger (A. niger)
